Experimental data: patent US11986532B2 (Arvinas Operations, Inc., priority 2021, dated 2024)
Like-named read-outs stand apart in the source and are kept apart here.

Target: T1, BCL6 (Homo sapiens, UniProt P41182)
T1 construct: endogenous in cells; host or cells: T47D breast cancer epithelial cells
Test: Immunofluorescence protocol for high content imaging of BCL6 (degradation) in T47D cells, 3 days compound treatment
Type: cell-based
Conditions: for DC50: read-out: Mean DC50 (nM)* category; for Dmax: read-out: Mean Dmax (%)** category
Summary of the method: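 Cells are seeded to reach ~70-90% confluence at endpoint, then dosed next day with compound at a final top concentration of 0.1 or 1 μM (11 points, 3-fold). After 3 days, BCL6 is detected by immunofluorescence and quantified by high-content imaging.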

[1] = T47D cells, 3 days compound treatment

Row | SMILES | DC50 [1] | Dmax [1] | Dmax (T47D) | DC50
1 | CNC(=O)COc1cc2cc(Nc3nc(N4CCC(O[C@H]5C[C@H](N6CCC(c7ccc8c(c7F)CN(C7CCC(=O)NC7=O)C8=O)C(F)C6)C5)CC4)ncc3Cl)ccc2n(C(C)C)c1=O (some centres unmarked) [Compound 201, 2-[[6-[[5-chloro-2-[4-[3-[4-[2-(2,6-dioxo-3-piperidyl)-4-fluoro-1-oxo-isoindolin-5-yl]-3-fluoro-1-piperidyl]cyclobutoxy]-1-piperidyl]pyrimidin-4-yl]amino]-1-isopropyl-2-oxo-3-quinolyl]oxy]-N-methyl-acetamide] | < 10 nM | ≥ 70% | – | –
2 | CNC(=O)COc1cc2cc(Nc3nc(N4CCC(O[C@H]5C[C@H](N6CCN(c7ccc8c(c7Cl)CN(C7CCC(=O)NC7=O)C8=O)[C@H](C)C6)C5)CC4)ncc3Cl)ccc2n(C(C)C)c1=O (stereo partly drawn) [Compound 202, 2-({6-[(5-chloro-2-{4-[(1r,3r)-3-[(3R)-4-[4-chloro-2-(2,6-dioxopiperidin-3-yl)-1-oxo-2,3-dihydro-1H-isoindol-5-yl]-3-methylpiperazin-1-yl]cyclobutoxy]piperidin-1-yl}pyrimidin-4-yl)amino]-2-oxo-1-(propan-2-yl)-1,2-dihydroquinolin-3-yl}oxy)-N-methylacetamide] | < 10 nM | ≥ 70% | – | –
3 | CNC(=O)COc1cc2cc(Nc3nc(N4CCC(O[C@H]5C[C@H](N6CCN(c7ccc8c(n7)C(C)N(C7CCC(=O)NC7=O)C8=O)[C@@H](C)C6)C5)CC4)ncc3Cl)ccc2n(C(C)C)c1=O (some centres unmarked) [Compound 204] | < 10 nM | ≥ 70% | – | –
4 | CC[C@@H]1CN([C@H]2C[C@H](OC3CCN(c4ncc(Cl)c(Nc5ccc6c(c5)cc(OCC(=O)NC)c(=O)n6C(C)C)n4)CC3)C2)CCN1c1ccc2c(c1Cl)CN(C1CCC(=O)NC1=O)C2=O (stereo partly drawn) [Compound 205, 2-({6-[(5-chloro-2-{4-[(1r,3r)-3-[(3R)-4-[4-chloro-2-(2,6-dioxopiperidin-3-yl)-1-oxo-2,3-dihydro-1H-isoindol-5-yl]-3-ethylpiperazin-1-yl]cyclobutoxy]piperidin-1-yl}pyrimidin-4-yl)amino]-2-oxo-1-(propan-2-yl)-1,2-dihydroquinolin-3-yl}oxy)-N-methylacetamide] | < 10 nM | ≥ 70% | – | –
5 | CNC(=O)COc1cc2cc(Nc3nc(N4CCC(O[C@H]5C[C@H](N6CCN(c7ccc8c(c7Cl)CN(C7CCC(=O)NC7=O)C8=O)[C@@H](C)C6)C5)CC4)ncc3Cl)ccc2n(C(C)C)c1=O (stereo partly drawn) [Compound 206, 2-({6-[(5-chloro-2-{4-[(1r,3r)-3-[(3S)-4-[4-chloro-2-(2,6-dioxopiperidin-3-yl)-1-oxo-2,3-dihydro-1H-isoindol-5-yl]-3-methylpiperazin-1-yl]cyclobutoxy]piperidin-1-yl}pyrimidin-4-yl)amino]-2-oxo-1-(propan-2-yl)-1,2-dihydroquinolin-3-yl}oxy)-N-methylacetamide] | < 10 nM | ≥ 70% | – | –
6 | CNC(=O)COc1cc2cc(Nc3nc(N4CCC(O[C@H]5C[C@H](N6C[C@@H](C)N(c7ccc8c(c7C)C(=O)N(C7CCC(=O)NC7=O)C8=O)C[C@@H]6C)C5)CC4)ncc3Cl)ccc2n(C(C)C)c1=O (stereo partly drawn) [Compound 207, 2-({6-[(5-chloro-2-{4-[(1r,3r)-3-[(2S,5R)-4-[2-(2,6-dioxopiperidin-3-yl)-4-methyl-1,3-dioxo-2,3-dihydro-1H-isoindol-5-yl]-2,5-dimethylpiperazin-1-yl]cyclobutoxy]piperidin-1-yl}pyrimidin-4-yl)amino]-2-oxo-1-(propan-2-yl)-1,2-dihydroquinolin-3-yl}oxy)-N-methylacetamide] | < 10 nM | ≥ 70% | – | –
7 | CNC(=O)COc1cc2cc(Nc3nc(N4CCC(O[C@H]5C[C@H](N6CCC(c7cc(C)c8c(c7F)CN(C7CCC(=O)NC7=O)C8=O)CC6)C5)CC4)ncc3Cl)ccc2n(C(C)C)c1=O (some centres unmarked) [Compound 208, 2-({6-[(5-chloro-2-{4-[(1r,3r)-3-{4-[2-(2,6-dioxopiperidin-3-yl)-4-fluoro-7-methyl-1-oxo-3H-isoindol-5-yl]piperidin-1-yl}cyclobutoxy]piperidin-1-yl}pyrimidin-4-yl)amino]-1-isopropyl-2-oxoquinolin-3-yl}oxy)-N-methylacetamide] | < 10 nM | ≥ 70% | – | –
8 | CNC(=O)COc1cc2cc(Nc3nc(N4CCC(O[C@H]5C[C@H](N6CC[C@@H](c7ccc8c(c7F)CN([C@H]7CCC(=O)NC7=O)C8=O)C(C)(C)C6)C5)CC4)ncc3Cl)ccc2n(C(C)C)c1=O [Compound 209, 2-({6-[(5-chloro-2-{4-[(1r,3r)-3-[(4R)-4-{2-[(3S)-2,6-dioxopiperidin-3-yl]-4-fluoro-1-oxo-2,3-dihydro-1H-isoindol-5-yl}-3,3-dimethylpiperidin-1-yl]cyclobutoxy]piperidin-1-yl}pyrimidin-4-yl)amino]-2-oxo-1-(propan-2-yl)-1,2-dihydroquinolin-3-yl}oxy)-N-methylacetamide] | < 10 nM | ≥ 70% | – | –
9 | CNC(=O)COc1cc2cc(Nc3nc(N4CCC(O[C@H]5C[C@H](N6CC[C@H](c7ccc8c(c7F)CN([C@H]7CCC(=O)NC7=O)C8=O)C(C)(C)C6)C5)CC4)ncc3Cl)ccc2n(C(C)C)c1=O [Compound 210, 2-({6-[(5-chloro-2-{4-[(1r,3r)-3-[(4S)-4-{2-[(3S)-2,6-dioxopiperidin-3-yl]-4-fluoro-1-oxo-2,3-dihydro-1H-isoindol-5-yl}-3,3-dimethylpiperidin-1-yl]cyclobutoxy]piperidin-1-yl}pyrimidin-4-yl)amino]-2-oxo-1-(propan-2-yl)-1,2-dihydroquinolin-3-yl}oxy)-N-methylacetamide] | < 10 nM | ≥ 70% | – | –
10 | CNC(=O)COc1cc2cc(Nc3nc(N4CCC(O[C@H]5C[C@H](N6CCN(c7ccc8c(c7)CN([C@H]7CCC(=O)NC7=O)C8=O)C(C)(C)C6)C5)CC4)ncc3Cl)ccc2n(C(C)C)c1=O [Compound 211, 2-({6-[(5-chloro-2-{4-[(1r,3r)-3-{4-[2-(2,6-dioxopiperidin-3-yl)-1-oxo-2,3-dihydro-1H-isoindol-5-yl]-3,3-dimethylpiperazin-1-yl}cyclobutoxy]piperidin-1-yl}pyrimidin-4-yl)amino]-2-oxo-1-(propan-2-yl)-1,2-dihydroquinolin-3-yl}oxy)-N-methylacetamide] | – | – | ≥ 70% | < 10 nM
11 | CNC(=O)COc1cc2cc(Nc3nc(N4CCC(O[C@H]5C[C@H](N6CCC(c7cc8c(cc7C(F)(F)F)C(=O)N(C7CCC(=O)NC7=O)C8)CC6)C5)CC4)ncc3Cl)ccc2n(C(C)C)c1=O (some centres unmarked) [Compound 212, 2-({6-[(5-chloro-2-{4-[(1r,3r)-3-{4-[2-(2,6-dioxopiperidin-3-yl)-1-oxo-6-(trifluoromethyl)-2,3-dihydro-1H-isoindol-5-yl]piperidin-1-yl}cyclobutoxy]piperidin-1-yl}pyrimidin-4-yl)amino]-2-oxo-1-(propan-2-yl)-1,2-dihydroquinolin-3-yl}oxy)-N-methylacetamide] | – | – | 50 to 70% | < 10 nM
12 | CNC(=O)COc1cc2cc(Nc3nc(N4CCC(CN5CC(N6CCC(c7ccc8c(c7)C(=O)N(C7CCC(=O)NC7=O)C8=O)C(F)C6)C5)CC4)ncc3Cl)ccc2n(C(C)C)c1=O (centres unmarked) [Compound 213, 2-({6-[(5-chloro-2-{4-[(3-{4-[2-(2,6-dioxopiperidin-3-yl)-1,3-dioxo-2,3-dihydro-1H-isoindol-5-yl]-3-fluoropiperidin-1-yl}azetidin-1-yl)methyl]piperidin-1-yl}pyrimidin-4-yl)amino]-2-oxo-1-(propan-2-yl)-1,2-dihydroquinolin-3-yl}oxy)-N-methylacetamide] | – | – | 50 to 70% | 10 to 50 nM
13 | CNC(=O)COc1cc2cc(Nc3nc(N4CCC(O[C@H]5C[C@H](N6CCC(c7ccc8c(n7)CN(C7CCC(=O)NC7=O)C8=O)CC6)C5)CC4)ncc3Cl)ccc2n(C(C)C)c1=O (some centres unmarked) [Compound 214, 2-({6-[(5-chloro-2-{4-[(1r,3r)-3-{4-[6-(2,6-dioxopiperidin-3-yl)-5-oxo-5H,6H,7H-pyrrolo[3,4-b]pyridin-2-yl]piperidin-1-yl}cyclobutoxy]piperidin-1-yl}pyrimidin-4-yl)amino]-2-oxo-1-(propan-2-yl)-1,2-dihydroquinolin-3-yl}oxy)-N-methylacetamide] | – | – | 50 to 70% | < 10 nM
14 | CNC(=O)COc1cc2cc(Nc3cc(N4CCC(CN5CCC6(CC5)CN(c5ccc7c(c5)C(=O)N(C5CCC(=O)NC5=O)C7=O)C6)CC4)ncc3Cl)ccc2n(C(C)C)c1=O (centres unmarked) [Compound 215, 2-{[6-({5-chloro-2-[4-({2-[2-(2,6-dioxopiperidin-3-yl)-1,3-dioxoisoindol-5-yl]-2,7-diazaspiro[3.5]nonan-7-yl}methyl)piperidin-1-yl]pyridin-4-yl}amino)-1-isopropyl-2-oxoquinolin-3-yl]oxy}-N-methylacetamide] | – | – | 50 to 70% | 10 to 50 nM
15 | CNC(=O)COc1cc2cc(Nc3nc(N4CCC(O[C@H]5C[C@H](N6CCC(c7cnc8c(c7)CN(C7CCC(=O)NC7=O)C8=O)CC6)C5)CC4)ncc3Cl)ccc2n(C(C)C)c1=O (some centres unmarked) [Compound 216, 2-({6-[(5-chloro-2-{4-[(1r,3r)-3-{4-[6-(2,6-dioxopiperidin-3-yl)-7-oxo-5H,6H,7H-pyrrolo[3,4-b]pyridin-3-yl]piperidin-1-yl}cyclobutoxy]piperidin-1-yl}pyrimidin-4-yl)amino]-2-oxo-1-(propan-2-yl)-1,2-dihydroquinolin-3-yl}oxy)-N-methylacetamide] | – | – | 50 to 70% | < 10 nM
16 | CNC(=O)COc1cc2cc(Nc3nc(N4CCC(CN5CC(N6CCC(c7ccc8c(c7)CN(C7CCC(=O)NC7=O)C8=O)C(F)C6)C5)CC4)ncc3Cl)ccc2n(C(C)C)c1=O (centres unmarked) [Compound 217, 2-({6-[(5-chloro-2-{4-[(3-{4-[2-(2,6-dioxopiperidin-3-yl)-1-oxo-2,3-dihydro-1H-isoindol-5-yl]-3-fluoropiperidin-1-yl}azetidin-1-yl)methyl]piperidin-1-yl}pyrimidin-4-yl)amino]-2-oxo-1-(propan-2-yl)-1,2-dihydroquinolin-3-yl}oxy)-N-methylacetamide] | – | – | 50 to 70% | < 10 nM
